Measurements from ChEMBL document CHEMBL3885861, “Open TG-GATES”.

Organism: Rattus norvegicus
Experiment: Open TG-GATES - Regimen: Daily Repeat
Format: toxicity, organism-based, Sprague-Dawley
Set-up: regimen Daily Repeat, gender Male, age 6 weeks
Conditions: in vivo, po, 150 mg/kg, […], route gavage, dose level High; for KIDNEY_L / KIDNEY_R / KIDNEY_TOTAL: tissue Kidney; for LIVER: tissue Liver; for A/G / ALP / ALT / AST / BUN / CRE / Ca / Cl / DBIL / GLC / IP / K / LDH / Na / PL / RALB / TBIL / TC / TG / TP / gamma-GTP: tissue Plasma

## CN(C)CCC=C1c2ccccc2CCc2ccccc21 [AMITRIPTYLINE]
Tissue Blood, time 28 day
  Lym: 82%
  MCH: 19.1 pg
  MCHC: 34.3%
  MCV: 55.9 fL
  Mono: 1.7%
  Neu: 14%
  PT: 16.4 s
  Plat: 97.9 x10_4/uL
  RBC: 824.3 x10_4/ul
  Ret: 2%
  WBC: 104.7 x10_2/uL
Time 7 day
  KIDNEY_L: 0.9 g
  KIDNEY_R: 1 g
  KIDNEY_TOTAL: 1.9 g
  LIVER: 9.5 g
  A/G: 0.8
  ALP: 1572.2 IU/L
  ALT: 42.6 IU/L
  AST: 64.2 IU/L
  BUN: 14.4 mg/dL
  CRE: 0.2 mg/dL
  Ca: 10.6 mg/dL
  Cl: 104.8 meq/L
  DBIL: 0.008 mg/dL
  GLC: 169.2 mg/dL
  IP: 8 mg/dL
  K: 4.1 meq/L
  LDH: 68.2 IU/L
  Na: 143.8 meq/L
  PL: 144.6 mg/dL
  RALB: 2.7 g/dL
  TBIL: 0.042 mg/dL
  TC: 97 mg/dL
  TG: 29.6 mg/dL
  TP: 5.9 g/dL
  gamma-GTP: 0.8 IU/L
Time 14 day
  KIDNEY_L: 1 g
  KIDNEY_R: 1 g
  KIDNEY_TOTAL: 2 g
  LIVER: 12.8 g
  A/G: 0.8
  ALP: 1690.2 IU/L
  ALT: 39.8 IU/L
  AST: 59.2 IU/L
  BUN: 15.8 mg/dL
  CRE: 0.2 mg/dL
  Ca: 10.9 mg/dL
  Cl: 104 meq/L
  DBIL: 0.012 mg/dL
  GLC: 164.2 mg/dL
  IP: 7.6 mg/dL
  K: 4.3 meq/L
  LDH: 51.2 IU/L
  Na: 143.6 meq/L
  PL: 135 mg/dL
  RALB: 2.6 g/dL
  TBIL: 0.042 mg/dL
  TC: 78.6 mg/dL
  TG: 62.8 mg/dL
  TP: 6 g/dL
  gamma-GTP: 0.6 IU/L
Time 28 day
  KIDNEY_L: 1.2 g
  KIDNEY_R: 1.2 g
  KIDNEY_TOTAL: 2.4 g
  LIVER: 16.8 g
  A/G: 0.9
  ALP: 1692.3 IU/L
  ALT: 39.7 IU/L
  AST: 57.7 IU/L
  BUN: 14.7 mg/dL
  CRE: 0.2 mg/dL
  Ca: 10.7 mg/dL
  Cl: 103.7 meq/L
  DBIL: 0.0167 mg/dL
  GLC: 174 mg/dL
  IP: 7.1 mg/dL
  K: 4 meq/L
  LDH: 50 IU/L
  Na: 143 meq/L
  PL: 97.7 mg/dL
  RALB: 2.9 g/dL
  TBIL: 0.0467 mg/dL
  TC: 56.3 mg/dL
  TG: 35.3 mg/dL
  TP: 6.3 g/dL
  gamma-GTP: 0.7 IU/L
